Each structure is given as a SMILES string.

In US20240158393A1, “PYRIDONE COMPOUNDS AND METHODS OF USE” (Exelixis, Inc., priority 2021, published 2024) one finds IC50 data, which are given here for 18 molecules.

For the assay, the target named is T1, Human Axl (Homo sapiens, UniProt P30530).
T1 construct: Human AXL (residues 464-885)
T1 sequence (P30530 1-894 Q764R): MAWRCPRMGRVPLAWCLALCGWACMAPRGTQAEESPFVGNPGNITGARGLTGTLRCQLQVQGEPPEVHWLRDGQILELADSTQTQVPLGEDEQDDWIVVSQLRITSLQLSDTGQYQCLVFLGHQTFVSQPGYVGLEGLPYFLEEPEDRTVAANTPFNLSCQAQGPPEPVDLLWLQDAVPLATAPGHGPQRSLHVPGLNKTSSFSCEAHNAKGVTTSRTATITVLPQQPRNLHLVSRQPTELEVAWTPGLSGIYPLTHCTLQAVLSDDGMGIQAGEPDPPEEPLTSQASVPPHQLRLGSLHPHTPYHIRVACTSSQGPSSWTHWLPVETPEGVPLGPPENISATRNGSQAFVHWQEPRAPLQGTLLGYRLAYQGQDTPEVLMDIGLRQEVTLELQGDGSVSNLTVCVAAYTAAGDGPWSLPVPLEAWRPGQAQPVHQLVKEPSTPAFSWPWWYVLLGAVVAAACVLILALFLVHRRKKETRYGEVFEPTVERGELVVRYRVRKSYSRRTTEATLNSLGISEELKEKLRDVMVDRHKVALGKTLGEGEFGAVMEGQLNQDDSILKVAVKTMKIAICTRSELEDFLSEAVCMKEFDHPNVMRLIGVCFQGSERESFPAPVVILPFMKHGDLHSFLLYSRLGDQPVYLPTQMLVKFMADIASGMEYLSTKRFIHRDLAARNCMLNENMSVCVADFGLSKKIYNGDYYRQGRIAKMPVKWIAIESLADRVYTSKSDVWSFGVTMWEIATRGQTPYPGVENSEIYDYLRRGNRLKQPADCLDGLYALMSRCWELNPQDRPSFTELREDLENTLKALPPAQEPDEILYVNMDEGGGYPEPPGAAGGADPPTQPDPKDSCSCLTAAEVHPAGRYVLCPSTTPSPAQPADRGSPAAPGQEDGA
Kind of assay: Human AXL kinase assay (33P radiometric / HTRF KinEase). The assay is classed as biochemical. To be noted: protocols of Examples A-1 and/or A-2.
`COc1cc2nccc(Oc3ccc(NC(=O)c4c(C)nc(C)c(C(N)=O)c4O)cc3)c2nc1OC` [Compound 85, 3-N-[4-[(6,7-Dimethoxy-1,5-naphthyridin-4-yl)oxy]phenyl]-4-hydroxy-2,6-dimethylpyridine-3,5-dicarboxamide] displayed a 50% inhibitory concentration (IC50) greater than 300 nM. In the case of `COCCOc1cc2nccc(Oc3cc(F)c(NC(=O)c4c(C)nc(C)c(C(N)=O)c4O)cc3F)c2nc1OC` [Compound 86, 3-N-[2,5-Difluoro-4-[[6-methoxy-7-(2-methoxyethoxy)-1,5-naphthyridin-4-yl]oxy]phenyl]-4-hydroxy-2,6-dimethylpyridine-3,5-dicarboxamide] it was greater than 300 nM; in that of `COc1cc2nccc(Oc3ccc(NC(=O)c4c(C)nc(C)c(C#N)c4O)cc3F)c2nc1OC` [Compound 87, 5-Cyano-N-[4-[(6,7-dimethoxy-1,5-naphthyridin-4-yl)oxy]-3-fluorophenyl]-4-hydroxy-2,6-dimethylpyridine-3-carboxamide], greater than 300 nM; in that of `COc1cc2nccc(Oc3ccc(NC(=O)c4c(C)n(C)c(C)c(N5CCOCC5)c4=O)cc3F)c2nc1OC` [Compound 88, N-[4-[(6,7-Dimethoxy-1,5-naphthyridin-4-yl)oxy]-3-fluorophenyl]-1,2,6-trimethyl-5-morpholin-4-yl-4-oxopyridine-3-carboxamide], no more than 100 nM. On to `COc1cc2nccc(Oc3ccc(NC(=O)c4c(C)n(C)c(C)c(N5CCCC5)c4=O)cc3F)c2nc1OC` [Compound 89, N-[4-[(6,7-Dimethoxy-1,5-naphthyridin-4-yl)oxy]-3-fluorophenyl]-1,2,6-trimethyl-4-oxo-5-pyrrolidin-1-ylpyridine-3-carboxamide], for which the IC50 is no more than 100 nM. The molecule `COc1cc2nccc(Oc3ccc(NC(=O)c4c(C)n(C)c(C)c(N5CCCCC5)c4=O)cc3F)c2nc1OC` [Compound 90, N-[4-[(6,7-dimethoxy-1,5-naphthyridin-4-yl)oxy]-3-fluorophenyl]-1,2,6-trimethyl-4-oxo-5-piperidin-1-ylpyridine-3-carboxamide] displayed a half-maximal inhibitory concentration (IC50) of no more than 100 nM. `COc1cnc2c(Oc3ccc(NC(=O)c4c(C)nc(C)c(C(N)=O)c4O)cc3F)ccnc2c1` [Compound 91, 3-N-[3-Fluoro-4-[(7-methoxy-1,5-naphthyridin-4-yl)oxy]phenyl]-4-hydroxy-2,6-dimethylpyridine-3,5-dicarboxamide] showed an IC50 greater than 300 nM. In the case of `COc1cc2nccc(Oc3ccc(NC(=O)c4c(C)n(C)c(C)c(C(=O)O)c4=O)cc3F)c2nc1OC` [Compound 92, 5-[[4-[(6,7-Dimethoxy-1,5-naphthyridin-4-yl)oxy]-3-fluorophenyl]carbamoyl]-1,2,6-trimethyl-4-oxopyridine-3-carboxylic acid] it was greater than 300 nM; in that of `COc1cc2nccc(Oc3ccc(NC(=O)c4c(C)nc(C)c(C(=O)N(C)C)c4O)cc3F)c2nc1OC` [Compound 93, 3-N-[4-[(6,7-Dimethoxy-1,5-naphthyridin-4-yl)oxy]-3-fluorophenyl]-4-hydroxy-5-N,5-N,2,6-tetramethylpyridine-3,5-dicarboxamide], no more than 100 nM. Molecule `COc1cc2nccc(Oc3ccc(NC(=O)c4c(C)nc(C)c(C(=O)NC(C)C)c4O)cc3F)c2nc1OC` [Compound 94, 3-N-[4-[(6,7-Dimethoxy-1,5-naphthyridin-4-yl)oxy]-3-fluorophenyl]-4-hydroxy-2,6-dimethyl-5-N-propan-2-ylpyridine-3,5-dicarboxamide] gave a 50% inhibitory concentration (IC50) of no more than 100 nM. The molecule `COc1cc2nccc(Oc3ccc(NC(=O)c4c(C)n(C)c(C)c(C(=O)N(C)C)c4=O)cc3F)c2nc1OC` [Compound 95, 5-N-[4-[(6,7-Dimethoxy-1,5-naphthyridin-4-yl)oxy]-3-fluorophenyl]-3-N,3-N,1,2,6-pentamethyl-4-oxopyridine-3,5-dicarboxamide] yielded an IC50 of 100 to 300 nM. The same measure for `COc1cc2nccc(Oc3ccc(NC(=O)c4c(C)n(C)c(C)c(C(=O)NC5CC5)c4=O)cc3F)c2nc1OC` [Compound 96, 3-N-Cyclopropyl-5-N-[4-[(6,7-dimethoxy-1,5-naphthyridin-4-yl)oxy]-3-fluorophenyl]-1,2,6-trimethyl-4-oxopyridine-3,5-dicarboxamide]: greater than 300 nM.

Molecule `CNC(=O)c1c(C)nc(C)c(C(=O)Nc2ccc(Oc3ccnc4cc(OC)c(OC)nc34)c(F)c2)c1O` [Compound 97, 3-N-[4-[(6,7-Dimethoxy-1,5-naphthyridin-4-yl)oxy]-3-fluorophenyl]-4-hydroxy-5-N,2,6-trimethylpyridine-3,5-dicarboxamide] displayed an IC50 of no more than 100 nM. In the case of `COc1cc2nccc(Oc3ccc(NC(=O)c4c(C)nc(C)c(C(=O)NC5CC5)c4O)cc3F)c2nc1OC` [Compound 98, 5-N-Cyclopropyl-3-N-[4-[(6,7-dimethoxy-1,5-naphthyridin-4-yl)oxy]-3-fluorophenyl]-4-hydroxy-2,6-dimethylpyridine-3,5-dicarboxamide] it was no more than 100 nM; in that of `COc1cc2nccc(Oc3ccc(NC(=O)c4c5n(c(C)c(C6=CCCC6)c4=O)CCOC5)cc3)c2nc1OC` [Compound 99, 7-(Cyclopenten-1-yl)-N-[4-[(6,7-dimethoxy-1,5-naphthyridin-4-yl)oxy]phenyl]-6-methyl-8-oxo-3,4-dihydro-1H-pyrido[2,1-c][1,4]oxazine-9-carboxamide], no more than 100 nM. For `COc1cc2nccc(Oc3ccc(NC(=O)c4c5n(c(C)c(C6=CCCCC6)c4=O)CCOC5)cc3)c2nc1OC` [Compound 100, 7-(Cyclohexen-1-yl)-N-[4-[(6,7-dimethoxy-1,5-naphthyridin-4-yl)oxy]phenyl]-6-methyl-8-oxo-3,4-dihydro-1H-pyrido[2,1-c][1,4]oxazine-9-carboxamide], the IC50 was no more than 100 nM. `COc1cc2nccc(Oc3ccc(NC(=O)c4c5n(cc(C6=CCCCC6)c4=O)CCOC5)cc3)c2nc1OC` [Compound G1-5, 7-(Cyclohexen-1-yl)-N-[4-[(6,7-dimethoxy-1,5-naphthyridin-4-yl)oxy]phenyl]-8-oxo-3,4-dihydro-1H-pyrido[2,1-c][1,4]oxazine-9-carboxamide] displayed an IC50 of no more than 100 nM. In the case of `COc1cc2nccc(Oc3ccc(NC(=O)c4c5n(cc(C6=CCOCC6)c4=O)CCOC5)cc3)c2nc1OC` [Compound G1-8, 7-(3,6-Dihydro-2H-pyran-4-yl)-N-[4-[(6,7-dimethoxy-1,5-naphthyridin-4-yl)oxy]phenyl]-8-oxo-3,4-dihydro-1H-pyrido[2,1-c][1,4]oxazine-9-carboxamide] it was no more than 100 nM.
